Molecular target: T1, full-length BTK^E41K (Mus musculus, UniProt P35991, E41K)
T1 construct: The full-length BTK was cloned into the pET28-SUMO vector; His-SUMO (N, cleaved yes); made in house; host or cells: E. coli BL21-DE3, co-transformed with YopH and Trigger factor
Test: Autophosphorylation assay by immunoblot (Y551) of purified full-length BTK
Assay type: biochemical
Details: 2 μM BTK, 100 μM ligand, compared to unliganded state
Experimental: The activation of full-length BTK in response to the ligand was determined from the autophosphorylation Y551 or total phosphotyrosine level. Before each reaction, 2 μM BTK was incubated with 100 μM ligand for 10 min. The phosphorylation reaction was performed at 25 °C in a buffer containing 25 mM Tris-Cl (pH 7.5), 2 mM ATP, 10 mM MgCl2, and 1 mM Na3VO4. The reaction was quenched with SDS–PAGE loading buffer. The autophosphorylation levels of full-length BTK were detected by immunoblot ([22]). The amount of BTK loaded was determined using an anti-BTK antibody. Densitometric analysis of immunoblots was performed using Fiji software ([52]).

T1 sequence (P35991 whole entry E41K): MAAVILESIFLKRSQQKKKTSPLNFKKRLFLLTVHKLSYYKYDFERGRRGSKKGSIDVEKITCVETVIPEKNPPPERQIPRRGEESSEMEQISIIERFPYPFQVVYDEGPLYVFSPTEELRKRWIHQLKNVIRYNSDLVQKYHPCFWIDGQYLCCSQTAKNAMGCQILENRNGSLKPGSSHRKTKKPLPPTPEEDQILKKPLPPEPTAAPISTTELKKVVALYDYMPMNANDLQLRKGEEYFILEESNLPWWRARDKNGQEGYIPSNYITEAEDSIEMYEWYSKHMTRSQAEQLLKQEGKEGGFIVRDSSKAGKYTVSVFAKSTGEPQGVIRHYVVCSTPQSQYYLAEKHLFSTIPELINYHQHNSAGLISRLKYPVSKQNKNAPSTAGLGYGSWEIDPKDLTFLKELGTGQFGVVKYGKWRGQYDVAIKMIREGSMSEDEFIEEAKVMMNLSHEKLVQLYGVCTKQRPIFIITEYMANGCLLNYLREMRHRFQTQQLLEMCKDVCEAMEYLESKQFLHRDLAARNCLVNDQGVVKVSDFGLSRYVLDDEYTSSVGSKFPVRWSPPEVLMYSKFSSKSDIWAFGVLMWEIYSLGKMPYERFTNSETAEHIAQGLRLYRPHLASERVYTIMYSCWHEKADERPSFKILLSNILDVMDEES

O=P(O)(O)O[C@@H]1[C@H](O)[C@H](O)[C@@H](OP(=O)(O)O)[C@H](OP(=O)(O)O)[C@H]1O [IP3]
Y551 phosphorylation of BTK^E41K: does not induce

O=P(O)(O)OC1C(OP(=O)(O)O)C(OP(=O)(O)O)C(OP(=O)(O)O)C(OP(=O)(O)O)C1OP(=O)(O)O (centres unmarked) [IP6, inositol hexakisphosphate]
Y551 phosphorylation of BTK^E41K: significantly increases
